According to US20260262643A1, “HERBICIDAL BENZOXAZINES” (FMC CORPORATION, priority 2022, published 2026):

Columns and labels:
[1] = test system: wheat; assay: Test C postemergence; assay type: in vivo, Triticum aestivum; details: 10 days
How it was run: (§1)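 Visual injury ratings on a 0–100 scale (100 = complete control) were made against untreated controls 10 days after treatment in the greenhouse. Compounds, formulated with surfactant in non-phytotoxic solvent, were sprayed on soil preemergence or onto one- to two-leaf plants 2–10 cm tall postemergence.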

[2] = test system: ducksalad; assay: Test D flooded paddy test; assay type: in vivo, Heteranthera limosa; details: 250 g ai/ha, applied to paddy water, visual rating after 13 to 14 days, scale 0 to 100 (0 no effect, 100 complete control)
How it was run: (§2)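 Compounds go straight into paddy water over 2-leaf plants in pots flooded to 3 cm. Greenhouse holding lasts 13 to 14 days. Injury is scored by eye against controls from 0 (none) to 100 (complete control).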

[3] = test system: ragweed; assay: Test C postemergence; assay type: in vivo, Ambrosia artemisiifolia; details: 10 days
How it was run: as §1

[4] = test system: galium; assay: Test C postemergence; assay type: in vivo, Galium aparine; details: 10 days
How it was run: as §1

[5] = test system: pigweed, palmer; assay: Test C preemergence; assay type: in vivo, Amaranthus palmeri; details: 0 to 100 scale (0 no effect, 100 complete control); for Plant response rating, Pigweed, Palmer: Preemergence, 500 g ai/ha, visual rating after 10 days; for Pigweed, Palmer plant response rating: Test C, preemergence, 125 g ai/ha
How it was run: as §1

[6] = test system: ragweed; assay: Test C preemergence; assay type: in vivo, Ambrosia artemisiifolia; details: 0 to 100 scale (0 no effect, 100 complete control); for Plant response rating, Ragweed: Preemergence, 500 g ai/ha, visual rating after 10 days; for Ragweed plant response rating: Test C, preemergence, 125 g ai/ha
How it was run: as §1

[7] = test system: barnyardgrass; assay: Test D flooded paddy test; assay type: in vivo, Echinochloa crus-galli; details: 250 g ai/ha, applied to paddy water, visual rating after 13 to 14 days, scale 0 to 100 (0 no effect, 100 complete control)
How it was run: as §2

[8] = test system: horseweed; assay: Test C postemergence; assay type: in vivo, Erigeron canadensis; details: 10 days
How it was run: as §1

[9] = test system: blackgrass; assay: Test C preemergence; assay type: in vivo, Alopecurus myosuroides; details: 0 to 100 scale (0 no effect, 100 complete control); for Plant response rating, Blackgrass: Preemergence, 500 g ai/ha, visual rating after 10 days; for Blackgrass plant response rating: Test C, preemergence, 125 g ai/ha
How it was run: as §1

[10] = test system: green foxtail; assay: Test C postemergence; assay type: in vivo, Setaria viridis; details: 10 days
How it was run: as §1

[11] = test system: blackgrass; assay: Test C postemergence; assay type: in vivo, Alopecurus myosuroides; details: 10 days
How it was run: as §1

[12] = test system: wheat; assay: Test C preemergence; assay type: in vivo, Triticum aestivum; details: 0 to 100 scale (0 no effect, 100 complete control); for Plant response rating, Wheat: Preemergence, 500 g ai/ha, visual rating after 10 days; for Wheat plant response rating: Test C, preemergence, 125 g ai/ha
How it was run: as §1

[13] = test system: barnyardgrass; assay: Test C postemergence; assay type: in vivo, Echinochloa crusgalli; details: 10 days
How it was run: as §1

[14] = test system: soybean; assay: Test C postemergence; assay type: in vivo, Glycine max; details: 10 days
How it was run: as §1

[15] = test system: green foxtail; assay: Test C preemergence; assay type: in vivo, Setaria viridis; details: 0 to 100 scale (0 no effect, 100 complete control); for Plant response rating, Foxtail, Green: Preemergence, 500 g ai/ha, visual rating after 10 days; for Foxtail, Green plant response rating: Test C, preemergence, 125 g ai/ha
How it was run: as §1

[16] = test system: ryegrass, Italian; assay: Test C postemergence; assay type: in vivo, Lolium multiflorum; details: 10 days
How it was run: as §1

[17] = test system: rice; assay: Test D flooded paddy test; assay type: in vivo, Oryza sativa; details: 250 g ai/ha, applied to paddy water, visual rating after 13 to 14 days, scale 0 to 100 (0 no effect, 100 complete control)
How it was run: as §2

[18] = test system: barnyardgrass; assay: Test C preemergence; assay type: in vivo, Echinochloa crusgalli; details: 0 to 100 scale (0 no effect, 100 complete control); for Barnyardgrass plant response rating: 125 g ai/ha, preemergence; for Plant response rating, Barnyardgrass: Preemergence, 500 g ai/ha, visual rating after 10 days
How it was run: as §1

[19] = test system: ryegrass, Italian; assay: Test C preemergence; assay type: in vivo, Lolium multiflorum; details: 0 to 100 scale (0 no effect, 100 complete control); for Plant response rating, Ryegrass, Italian: Preemergence, 500 g ai/ha, visual rating after 10 days; for Ryegrass, Italian plant response rating: Test C, preemergence, 125 g ai/ha
How it was run: as §1

[20] = test system: sedge, umbrella; assay: Test D flooded paddy test; assay type: in vivo, Cyperus difformis; details: 250 g ai/ha, applied to paddy water, visual rating after 13 to 14 days, scale 0 to 100 (0 no effect, 100 complete control)
How it was run: as §2

[21] = test system: kochia; assay: Test C preemergence; assay type: in vivo, Bassia scoparia; details: 0 to 100 scale (0 no effect, 100 complete control); for Plant response rating, Kochia: Preemergence, 500 g ai/ha, visual rating after 10 days; for Kochia plant response rating: Test C, preemergence, 125 g ai/ha
How it was run: as §1

[22] = test system: kochia; assay: Test C postemergence; assay type: in vivo, Bassia scoparia; details: 10 days
How it was run: as §1

[23] = test system: oat, wild; assay: Test C preemergence; assay type: in vivo, Avena fatua; details: 0 to 100 scale (0 no effect, 100 complete control); for Plant response rating, Oat, Wild: Preemergence, 500 g ai/ha, visual rating after 10 days; for Oat, Wild plant response rating: Test C, preemergence, 125 g ai/ha
How it was run: as §1

[24] = test system: soybean; assay: Test C preemergence; assay type: in vivo, Glycine max; details: 0 to 100 scale (0 no effect, 100 complete control); for Plant response rating, Soybean: Preemergence, 500 g ai/ha, visual rating after 10 days; for Soybean plant response rating: Test C, preemergence, 125 g ai/ha
How it was run: as §1

[25] = test system: pigweed, palmer; assay: Test C postemergence; assay type: in vivo, Amaranthus palmeri; details: 10 days
How it was run: as §1

[26] = test system: oat, wild; assay: Test C postemergence; assay type: in vivo, Avena fatua; details: 10 days
How it was run: as §1

[27] = test system: corn; assay: Test C preemergence; assay type: in vivo, Zea mays; details: 0 to 100 scale (0 no effect, 100 complete control); for Plant response rating, Corn: Preemergence, 500 g ai/ha, visual rating after 10 days; for Corn plant response rating: Test C, preemergence, 125 g ai/ha
How it was run: as §1

[28] = test system: corn; assay: Test C postemergence; assay type: in vivo, Zea mays; details: 10 days
How it was run: as §1

[29] = 125 g ai/ha, postemergence, 0 to 100 scale, 0 no effect, 100 complete control
[30] = Postemergence, 500 g ai/ha, visual 0 to 100 scale (0 no effect, 100 complete control)

C[C@H]1CN(C(=O)c2cccc(-n3cnc(C(C)(C)O)n3)c2)c2cccc(Cl)c2O1 [Compound 169]
Plant response rating, Wheat [1, 29]: 6 | Plant response rating, Wheat [1, 30]: 90 | Plant response rating, Ducksalad (Flood) [2]: 90 | Plant response rating, Ragweed [3, 29]: 50 | Plant response rating, Ragweed [3, 30]: 90 | Plant response rating, Galium [4, 29]: 100 | Plant response rating, Galium [4, 30]: 100 | Plant response rating, Pigweed, Palmer [5]: 100 | Pigweed, Palmer plant response rating [5]: 100 | Plant response rating, Ragweed [6]: 100 | Ragweed plant response rating [6]: 50 | Plant response rating, Barnyardgrass (Flood) [7]: 0 | Plant response rating, Horseweed [8, 29]: 0 | Plant response rating, Horseweed [8, 30]: 40 | Plant response rating, Blackgrass [9]: 90 | Blackgrass plant response rating [9]: 90 | Plant response rating, Foxtail, Green [10, 29]: 30 | Plant response rating, Foxtail, Green [10, 30]: 90 | Plant response rating, Blackgrass [11, 29]: 90 | Plant response rating, Blackgrass [11, 30]: 100 | Plant response rating, Wheat [12]: 90 | Wheat plant response rating [12]: 30 | Plant response rating, Barnyardgrass [13, 29]: 20 | Plant response rating, Barnyardgrass [13, 30]: 70 | Plant response rating, Soybean [14, 29]: 100 | Plant response rating, Soybean [14, 30]: 100 | Plant response rating, Foxtail, Green [15]: 100 | Foxtail, Green plant response rating [15]: 100 | Plant response rating, Ryegrass, Italian [16, 29]: 60 | Plant response rating, Ryegrass, Italian [16, 30]: 100 | Plant response rating, Rice (Flood) [17]: 0 | Barnyardgrass plant response rating [18]: 80 | Plant response rating, Barnyardgrass [18]: 100 | Plant response rating, Ryegrass, Italian [19]: 100 | Ryegrass, Italian plant response rating [19]: 90 | Plant response rating, Sedge, Umbrella (Flood) [20]: 85 | Plant response rating, Kochia [21]: 100 | Kochia plant response rating [21]: 100 | Plant response rating, Kochia [22, 29]: 90 | Plant response rating, Kochia [22, 30]: 90 | Plant response rating, Oat, Wild [23]: 90 | Oat, Wild plant response rating [23]: 80 | Plant response rating, Soybean [24]: 90 | Soybean plant response rating [24]: 90 | Plant response rating, Pigweed, Palmer [25, 29]: 70 | Plant response rating, Pigweed, Palmer [25, 30]: 90 | Plant response rating, Oat, Wild [26, 29]: 80 | Plant response rating, Oat, Wild [26, 30]: 90 | Plant response rating, Corn [27]: 40 | Corn plant response rating [27]: 0 | Plant response rating, Corn [28, 29]: 80 | Plant response rating, Corn [28, 30]: 90

Cc1ccc(-n2cnc(C(C)C)n2)cc1C(=O)N1C[C@H](C)Oc2c1cccc2C(F)(F)F [Compound 170]
Plant response rating, Wheat [1, 29]: 10 | Plant response rating, Wheat [1, 30]: 50 | Plant response rating, Ducksalad (Flood) [2]: 55 | Plant response rating, Ragweed [3, 29]: 70 | Plant response rating, Ragweed [3, 30]: 90 | Plant response rating, Galium [4, 29]: 100 | Plant response rating, Galium [4, 30]: 100 | Plant response rating, Pigweed, Palmer [5]: 100 | Pigweed, Palmer plant response rating [5]: 100 | Plant response rating, Ragweed [6]: 70 | Ragweed plant response rating [6]: 20 | Plant response rating, Barnyardgrass (Flood) [7]: 0 | Plant response rating, Horseweed [8, 29]: 80 | Plant response rating, Horseweed [8, 30]: 90 | Plant response rating, Blackgrass [9]: 80 | Blackgrass plant response rating [9]: 50 | Plant response rating, Foxtail, Green [10, 29]: 20 | Plant response rating, Foxtail, Green [10, 30]: 90 | Plant response rating, Blackgrass [11, 29]: 30 | Plant response rating, Blackgrass [11, 30]: 80 | Plant response rating, Wheat [12]: 90 | Wheat plant response rating [12]: 50 | Plant response rating, Barnyardgrass [13, 29]: 20 | Plant response rating, Barnyardgrass [13, 30]: 50 | Plant response rating, Soybean [14, 29]: 100 | Plant response rating, Soybean [14, 30]: 100 | Plant response rating, Foxtail, Green [15]: 100 | Foxtail, Green plant response rating [15]: 100 | Plant response rating, Ryegrass, Italian [16, 29]: 60 | Plant response rating, Ryegrass, Italian [16, 30]: 90 | Plant response rating, Rice (Flood) [17]: 15 | Plant response rating, Barnyardgrass [18]: 100 | Barnyardgrass plant response rating ([18]; Test C): 90 | Plant response rating, Ryegrass, Italian [19]: 100 | Ryegrass, Italian plant response rating [19]: 80 | Plant response rating, Sedge, Umbrella (Flood) [20]: 95 | Plant response rating, Kochia [21]: 100 | Kochia plant response rating [21]: 90 | Plant response rating, Kochia [22, 29]: 80 | Plant response rating, Kochia [22, 30]: 100 | Plant response rating, Oat, Wild [23]: 80 | Oat, Wild plant response rating [23]: 60 | Plant response rating, Soybean [24]: 100 | Soybean plant response rating [24]: 70 | Plant response rating, Pigweed, Palmer [25, 29]: 100 | Plant response rating, Pigweed, Palmer [25, 30]: 100 | Plant response rating, Oat, Wild [26, 29]: 20 | Plant response rating, Oat, Wild [26, 30]: 60 | Plant response rating, Corn [27]: 20 | Corn plant response rating [27]: 20 | Plant response rating, Corn [28, 29]: 30 | Plant response rating, Corn [28, 30]: 50
